# Results: patent US20160128988A1, “COMBINATIONS FOR THE TREATMENT OF CANCER COMPRISING A MPS-1 KINASE INHIBITOR AND A MITOTIC INHIBITOR” (BAYER PHARMA AKTIENGESELLSCHAFT, priority 2013, published 2016)
# Legend:
# [1] = tested on: MKN1 human gastric carcinoma model; experiment: Combination with paclitaxel in MKN1 human gastric carcinoma model; settings: Compound A1 single agent 1 mg/kg or 2.5 mg/kg (40 days); paclitaxel and combination (78 treatment days)
# Description: Compound A1 was administered PO in the 2QD intermittent (2 days on/5 days off) dosing schedule up to the respective MTD in single-agent treatment and at a dose of 40% of the single-agent MTD in combination. Paclitaxel was administered IV QW at its respective MTD. Treatment for all groups started at a tumor size of 27 mm^2, on day 7 after tumor cell inoculation. For combination treatment, Compound A1 and paclitaxel were administered on the same day within a time of 4 hours. Animals of the control and Compound A1 single-agent treatment groups were treated for 40 days. Animals of the paclitaxel single-agent and Compound A1 with paclitaxel combination treatment groups were treated for 78 days.
# [2] = tested on: NCI-H1299 human NSCLC xenograft tumors
# Description: The effect of combination treatment of an Mps-1 inhibitor and paclitaxel was studied in the NCI-H1299 taxane intrinsically resistant human lung carcinoma (NSCLC) xenograft model in nude mice.
# (§1) Paclitaxel was applied intravenously once per week upon its respective MTD. Substances were formulated in optimal vehicles to achieve solutions. Animal body weight and tumor size were determined two to three times weekly. […] For combination treatment, the Compound A1 and paclitaxel were applied at the same day within a time frame of 4 hours. Animals of control and monotherapy group (Compound A1 only) were treated for a duration of 28 days. Animals of paclitaxel monotherapy and paclitaxel/Mps-1 inhibitor treatment groups were treated for a duration of 37 days. At the end of the study after one final treatment plasma and tumors were sampled for PK analysis and final tumor weight was determined.
# (§2) FIGS. 1A and 1B show the response of NCI-H1299 human NSCLC xenograft tumors to treatment with Compound A1 in combination with paclitaxel. NCI-H1299 human NSCLC tumor cells were implanted s.c. into nude mice on day 0. […] Compound A1 was administered orally (p.o.) upon 0.45 mg/kg twice daily (2QD) for 2 days on/5 days off (2 on/5 off) in monotherapy and in combination with paclitaxel. Paclitaxel was administered intravenously (i.v.) upon 20 mg/kg once daily (QD) once per week (1 on/6 off) in monotherapy and combination therapy. Tumor growth was monitored by determination of the tumor area using calliper measurement two to three times weekly. FIG. 1A: Time course of tumor growth. FIG. 1B: Time course of animal body weight change during the course of the study.
# [3] = tested on: human glioblastoma model U87 MG; experiment: Combination with vincristine in human glioblastoma model U87 MG (intracerebral); assay type: in vivo, nude mice
# Description: The study was designed to determine the response of this glioblastoma model to the treatment with the investigational Compound A1 and vincristine, both alone at a fixed dose, and vincristine in combination with two different doses, both lower than that of Compound A1 used in the monotherapy schedule. The size of the glioblastoma was used as read out parameter for response.
# The cell culture derived human xenograft U87 MG was initiated by transplantation of the tumor cells into the left hemisphere of the mouse brain. Treatment was done in three cycles between day 3 and day 19. Mice were sacrificed at day 24, the brain isolated and shock frozen in 2 methyl-butane. Tumor size were determined as measure for tumor growth inhibition from cryo-slizes after staining.
# [4] = tested on: cisplatin-resistant ovarian cancer cells A2780cis; experiment: Mode of action: histopathology of A2780cis tumors after treatment; settings: Compound A1 single agent 2.5 mg/kg PO 2QD 2 days on/5 days off, samples 24 hours after first administration
# Description: To explain in vivo the mode of action of an Mps-1 kinase inhibitor in single-agent treatment and combination treatment with a taxane, female NMRI (Naval Medical Research Institute) nude mice were implanted with cisplatin-resistant ovarian cancer cells A2780cis.
# Paclitaxel was administered IV (intravenous(ly)) QW (once per week (meaning the 1 day on/6 days off treatment schedule)) at its MTD (24 mg/kg) in single-agent and combination treatments. […] Tumors were embedded in paraffin, sections were prepared and stained with hematoxylin & eosin for histopathological analysis.
# [5] = tested on: IGR-OV1 human ovarian carcinoma model
# Description: Paclitaxel was administered IV QW at 50% of its respective MTD.
# A2780cis xenograft model = tested on: A2780cis xenograft model
# Description: The effect of the combination treatment of Compound A1 with paclitaxel was studied in a human ovarian carcinoma model in nude mice, namely in the adaptive cisplatin-resistant and paclitaxel intrinsically-resistant A2780cis xenograft model. […] Paclitaxel was administered IV QW at its respective MTD.
# [6] = tested on: primary human NSCLC xenograft model LU387; experiment: Combination with paclitaxel in primary human NSCLC xenograft model LU387; assay type: in vivo, nude mice; settings: for mean tumor size: day 42 post treatment
# Description: The effect of Compound A1 and paclitaxel compared with a vehicle was evaluated in the subcutaneous primary human NSCLC xenograft model LU387 on nude mice.
# [7] = tested on: MDA-MB 231 human triple-negative breast cancer xenograft tumors
# Description: The effect of combination treatment of an Mps-1 kinase inhibitor (Compound A1) and paclitaxel was studied in the MDA-MB 231 human triple-negative (no expression of Her2/neu, progesterone receptor, estrogen receptor) xenograft model in nude mice.
# as §1, with “determined” for “determined two to”, “treatment,” for “treatment, the”, “paclitaxel/Mps-1 kinase” for “paclitaxel/Mps-1”, “50” for “37”
# as §2, with “MDA-MB 231” for “FIGS. 1A and 1B show the response of NCI-H1299”, “breast cancer” for “NSCLC xenograft tumors to treatment with Compound A1 in combination with paclitaxel. NCI-H1299 human NSCLC tumor”, “1” for “0.45”, “measurement” for “measurement two to”, “3A:” for “1A:”, “3B: Weight of tumors in paclitaxel/Mps-1 kinase inhibitor combination group at the end of the study at day 73 after tumor cell inoculation. FIG. 3C:” for “1B:”
# [8] = Maximum tolerated dose (MTD); assay type: in vivo, nude mice; settings: nude, mouse, in vivo; Compound A1 PO 2QD 2 days on/5 days off; paclitaxel IV QW; docetaxel i.v. 1 day on/6 days off; read-out: MTD (maximum tolerated dose), single-agent
# [9] = Compound A1 0.45 mg/kg 2QD 2on/5off p.o., paclitaxel 20 mg/kg QD 1on/6off i.v.
# [10] = day 24, single agents: Gr. B Compound A1 2.5 mg/kg p.o., Gr. C Vincristine 0.75 mg/kg i.p.
smiles,measurement,setting,value
COc1cc(S(C)(=O)=O)ccc1Nc1nc2ccc(-c3ccc(NC(=O)[C@H](C)c4ccc(F)cc4)cc3)cn2n1 [Compound A1],anti-tumor efficacy (in words),[1],no effect on tumor growth inhibition
same,Fatal Tox,[2]; [9],0/10
same,Max. Body weight loss (%),[2]; [9],−1%
same,anti-tumor efficacy (in words),"[2]; Compound A1 0.45 mg/kg 2QD p.o. (28 treatment days), combination with paclitaxel 20 mg/kg i.v. (37 treatment days)",no effect on tumor growth
same,T/C weight,"[2]; mean final tumor weight, Compound A1 0.45 mg/kg 2QD 2on/5off p.o.",1.34
same,T/C area,"[2]; relative mean tumor area, 28 treatment days, Compound A1 0.45 mg/kg 2QD 2on/5off p.o., paclitaxel 20 mg/kg QD 1on/6off i.v.",1.27
same,tumor growth inhibition (in words),"[3]; Compound A1 single drug 2.5 mg/kg, combination with vincristine",no inhibitory effect
same,"BWC [%] (at day), nadir of body weight",[3]; Gr. B: Compound A1 2.5 mg/kg p.o. BIDx2x3,−7.7 (d24) %
same,Brain tumor inside [mm^2],"[3]; day 24, single agents: Gr. B Compound A1 2.5 mg/kg p.o. BIDx2x3, Gr. C Vincristine 0.75 mg/kg i.p. 1xqWx3",15.89 +/− 9.93 mm^2
same,Brain tumor outside [mm^2],[3]; [10],5.50 +/− 4.09 mm^2
same,Brain tumor total [mm^2],[3]; [10],20.64 +/− 12.14 mm^2
same,T/C (inside T) [%],[3]; [10],91.3%
same,histopathological phenotype of tumor tissue,[4],"induction of a pleomorphic phenotype, including multinuclearity"
same,T/Cweight,"[5]; 38 treatment days, Compound A1 2.5 mg/kg PO 2QD 2 days on/5 days off",0.52
same,relative T/Carea,"[5]; 38 treatment days, Compound A1 single agent 2.5 mg/kg PO 2QD, paclitaxel 12 mg/kg IV QW, combination with Compound A1 2 mg/kg PO 2QD",0.57
same,anti-tumor efficacy (in words),"[5]; Compound A1 2.5 mg/kg single agent (38 days), paclitaxel 12 mg/kg and combination with Compound A1 2 mg/kg (treatment day 38 to 59)",moderate single-agent efficacy
same,tolerability (in words),"[5]; mouse, in vivo",well tolerated without critical body weight loss or toxicities
same,T/Cweight,"A2780cis xenograft model; 14 treatment days, Compound A1 1 mg/kg PO 2QD 2 days on/5 days off",0.87
same,relative T/Carea,"A2780cis xenograft model; 14 treatment days, Compound A1 1 mg/kg PO 2QD 2 days on/5 days off, paclitaxel 24 mg/kg IV QW",0.89
same,anti-tumor efficacy (in words),"A2780cis xenograft model; Compound A1 1 mg/kg (14 days), combination with paclitaxel 24 mg/kg (36 treatment days)",weak single-agent efficacy
same,tolerability (in words),"A2780cis xenograft model; mouse, in vivo",well tolerated without critical body weight loss or toxicities
same,antitumor activity (in words),"[6]; Compound A1 single agent 1 mg/kg and 2.5 mg/kg, combination with paclitaxel",no significant antitumor activity
same,T/Cvolume,"[6]; day 42, Compound A1 2.5 mg/kg (high dose)",0.73
same,mean tumor size,[6]; Compound A1 1 mg/kg PO 2QD 2 days on/5 days off over 6 weeks,1788 mm^3
same,mean tumor size,[6]; Compound A1 2.5 mg/kg PO 2QD 2 days on/5 days off over 6 weeks,1137 mm^3
same,Fatal Tox,"[7]; Compound A1 1 mg/kg 2QD 2on/5off p.o., paclitaxel 20 mg/kg QD 1on/6off i.v.",0/10
same,anti-tumor efficacy (in words),"[7]; Compound A1 1 mg/kg 2QD p.o. (28 treatment days), combination with paclitaxel 20 mg/kg i.v. (50 treatment days)",no effect on tumor growth
same,tolerability (in words),"[7]; Compound A1 1 mg/kg 2QD p.o., paclitaxel 20 mg/kg i.v.",well tolerated without critical body weight loss or toxicities
same,T/C weight,"[7]; mean final tumor weight, Compound A1 1 mg/kg 2QD 2on/5off p.o.",0.92
same,T/C area,"[7]; relative mean tumor area, 28 treatment days, Compound A1 1 mg/kg 2QD 2on/5off p.o., paclitaxel 20 mg/kg QD 1on/6off i.v.",0.91
same,MTD,[8],2.5 mg/kg
